Read-outs that look alike come from different tables or passages of the source.
Legend:
[1] = system: fibrin- and LPS-induced microglia activation; assay: cells; format: cell-based, rat
primary rat microglia [2] = assay: Cell toxicity (dead cells, size <150 μm2) in LPS assay
[3] = system: fibrin-induced microglia activation; assay: Image-based assay of fibrin-induced microglia activation (HTS and dose response); format: cell-based, rat; details: for inhibition at 10 µM: Rattus norvegicus, Microglia, read-out: Fibrin % inhibition
[4] = system: LPS-induced microglia activation; assay: Image-based assay of LPS-induced microglia activation (HTS and dose response); format: cell-based, rat; details: for inhibition at 10 µM: Rattus norvegicus, Microglia, read-out: LPS % inhibition
primary rat microglia [5] = assay: Cell toxicity (dead cells, size <150 μm2) in coated fibrin (cFib) assay;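 further: share of dead cells sized under 150 µm2 at 10 µM in fibrin-stimulated microglia HTS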
[6] = quadrant by fibrin and LPS inhibition in HTS of 1907 compounds
[7] = primary microglia HTS, LPS stimulation, decreased size (<150 μm^2) as marker of toxicity
[8] = primary microglia HTS, fibrin stimulation, increased cell size (>800 μm^2) as marker of activation
[9] = 48 h, primary microglia HTS, LPS stimulation, increased cell size (>800 μm^2) as marker of activation
[10] = primary microglia HTS, fibrin stimulation, decreased size (<150 μm^2) as marker of toxicity
[11] = primary HTS, 10 μM, LPS assay, dead cells size <150 μm2
[12] = primary HTS, 10 μM, fibrin-stimulated primary microglia
[13] = primary HTS, 10 μM, LPS-stimulated primary microglia
[14] = primary HTS, 10 μM, fibrin assay, dead cells size <150 μm2
[15] = HTS of 1907 compounds, quadrant by fibrin and LPS inhibition
[16] = primary microglia HTS, 10 μM, LPS assay, cell size <150 μm^2 as marker of toxicity
[17] = primary microglia HTS, 10 μM, fibrin-stimulated, cell size >800 μm^2 as marker of activation
[18] = primary microglia HTS, 10 μM, LPS-stimulated, cell size >800 μm^2 as marker of activation
[19] = primary microglia HTS, 10 μM, fibrin assay, cell size <150 μm^2 as marker of toxicity
[20] = primary microglia HTS, LPS stimulation, toxicity = cell size <150 μm2
[21] = primary microglia HTS, fibrin stimulation, activation = cell size >800 μm2
[22] = 48 h, primary microglia HTS, LPS stimulation, activation = cell size >800 μm2
[23] = primary microglia HTS, fibrin stimulation, toxicity = cell size <150 μm2
[24] = primary microglia HTS, LPS stimulation, increased cell size (>800 μm^2) as marker of activation

Cc1cc(=O)[nH]c(=S)[nH]1 [Methylthiouracil]
Quadrant (FIG. 5b) [1, 6]: Q4 | LPS % cell toxicity (primary rat microglia [2]; [7]): 0% | inhibition at 10 µM [3, 8]: 31% | inhibition at 10 µM [4, 9]: 16% | Fibrin % cell toxicity (primary rat microglia [5]; [10]): 0%

O=C(NCc1ccccc1)OCCO [Buramate]
Quadrant (FIG. 5b) ([1]; primary HTS, 10 μM): Q4 | LPS % cell toxicity (primary rat microglia [2]; [11]): 0% | inhibition at 10 µM [3, 12]: 9% | inhibition at 10 µM [4, 13]: 17% | Fibrin % cell toxicity (primary rat microglia [5]; [14]): 1%

C#C[C@]1(O)CC[C@H]2[C@@H]3[C@H](C)CC4=C(CCC(=O)C4)[C@H]3CC[C@@]21C [Tibolone]
Quadrant (FIG. 5b) [1, 15]: Q4 | LPS % cell toxicity (primary rat microglia [2]; [16]): 0% | inhibition at 10 µM [3, 17]: -8% | inhibition at 10 µM [4, 18]: 4% | Fibrin % cell toxicity (primary rat microglia [5]; [19]): 0%

COC(=O)C1=C(C)NC(C)=C(C(=O)OC(C)C)C1c1cccc2nonc12 (stereo not drawn) [Isradipine]
Quadrant (FIG. 5b) [1, 6]: Q4 | LPS % cell toxicity (primary rat microglia [2]; [20]): 0% | inhibition at 10 µM [3, 21]: 9% | inhibition at 10 µM [4, 22]: 2% | Fibrin % cell toxicity (primary rat microglia [5]; [23]): 1%

O=C1C(CC[S+]([O-])c2ccccc2)C(=O)N(c2ccccc2)N1c1ccccc1 (stereo not drawn) [Sulfinpyrazone]
Quadrant (FIG. 5b) [1, 15]: Q4 | LPS % cell toxicity (primary rat microglia [2]; [16]): 1% | inhibition at 10 µM [3, 17]: -6% | inhibition at 10 µM [4, 18]: 13% | Fibrin % cell toxicity (primary rat microglia [5]; [19]): 1%

OCCN1C[C@H](O)[C@@H](O)[C@H](O)[C@H]1CO [Miglitol]
Quadrant (FIG. 5b) [1, 6]: Q4 | LPS % cell toxicity (primary rat microglia [2]; [7]): 0% | inhibition at 10 µM [3, 8]: -9% | inhibition at 10 µM [4, 9]: 13% | Fibrin % cell toxicity (primary rat microglia [5]; [10]): 0%

C=C1CC[C@H](O)C/C1=C/C=C1\CCC[C@]2(C)[C@@H]([C@H](C)CCCC(C)(C)O)CC[C@@H]12 [Calcidiol]
Quadrant (FIG. 5b) ([1]; primary HTS, 10 μM): Q4 | LPS % cell toxicity (primary rat microglia [2]; [11]): 0% | inhibition at 10 µM [3, 12]: 14% | inhibition at 10 µM [4, 13]: 8% | Fibrin % cell toxicity (primary rat microglia [5]; [14]): 1%

Cc1nnc(SCC2=C(C(=O)O)N3C(=O)[C@@H](NC(=O)Cn4cnnn4)[C@H]3SC2)s1 [Cefazolin]
Quadrant (FIG. 5b) ([1]; primary HTS, 10 μM): Q4 | LPS % cell toxicity (primary rat microglia [2]; [11]): 0% | inhibition at 10 µM [3, 12]: 0% | inhibition at 10 µM [4, 13]: 11% | Fibrin % cell toxicity (primary rat microglia [5]; [14]): 1%

COc1nc(N)nc2c1ncn2[C@@H]1O[C@H](CO)[C@@H](O)[C@@H]1O [Nelarabin]
Quadrant (FIG. 5b) [1, 6]: Q4 | LPS % cell toxicity (primary rat microglia [2]; [7]): 0% | Fibrin % inhibition [3, 8]: −10% | LPS % inhibition [4, 24]: 0% | Fibrin % cell toxicity (primary rat microglia [5]; [10]): 0%

O=[N+]([O-])O[C@@H]1CO[C@H]2[C@@H]1OC[C@@H]2O [Isosorbide Mononitrate]
Quadrant (FIG. 5b) [1, 6]: Q4 | LPS % cell toxicity (primary rat microglia [2]; [20]): 1% | inhibition at 10 µM [3, 21]: -17% | inhibition at 10 µM [4, 22]: 15% | Fibrin % cell toxicity (primary rat microglia [5]; [23]): 0%

CCOC(=O)C1=C[C@@H](OC(CC)CC)[C@H](NC(C)=O)[C@@H](N)C1 [Oseltamivir Phosphate]
Quadrant (FIG. 5b) [1, 6]: Q4 | LPS % cell toxicity (primary rat microglia [2]; [7]): 0% | Fibrin % inhibition [3, 8]: −7% | LPS % inhibition [4, 24]: 13% | Fibrin % cell toxicity (primary rat microglia [5]; [10]): 1%

CC12CC3CC(C)(C1)CC(N)(C3)C2 [Memantine]
Quadrant (FIG. 5b) [1, 6]: Q4 | LPS % cell toxicity (primary rat microglia [2]; [7]): 0% | inhibition at 10 µM [3, 8]: 2% | inhibition at 10 µM [4, 9]: 5% | Fibrin % cell toxicity (primary rat microglia [5]; [10]): 0%

CCOC(=O)[C@H](CCc1ccccc1)N[C@@H](C)C(=O)N1Cc2cc(OC)c(OC)cc2C[C@H]1C(=O)O [Moexipril]
Quadrant (FIG. 5b) [1, 6]: Q4 | LPS % cell toxicity (primary rat microglia [2]; [7]): 1% | inhibition at 10 µM [3, 8]: -29% | inhibition at 10 µM [4, 9]: 9% | Fibrin % cell toxicity (primary rat microglia [5]; [10]): 1%

CCCCNc1cc(C(=O)O)cc(S(N)(=O)=O)c1Oc1ccccc1 [Bumetanide]
Quadrant (FIG. 5b) ([1]; primary HTS, 10 μM): Q4 | LPS % cell toxicity (primary rat microglia [2]; [11]): 1% | inhibition at 10 µM [3, 12]: -3% | inhibition at 10 µM [4, 13]: 18% | Fibrin % cell toxicity (primary rat microglia [5]; [14]): 1%

CC(=O)N(c1onc(C)c1C)S(=O)(=O)c1ccc(N)cc1 [Sulfisoxazole Acetyl]
Quadrant (FIG. 5b) [1, 15]: Q4 | LPS % cell toxicity (primary rat microglia [2]; [16]): 1% | inhibition at 10 µM [3, 17]: -3% | inhibition at 10 µM [4, 18]: 17% | Fibrin % cell toxicity (primary rat microglia [5]; [19]): 1%
